Experimental data: US20240335431A1, “1-H-PYRROLO[2,3-c]PYRIDINE COMPOUNDS” (Acerta Pharma B.V., priority 2023, published 2024)
Read-outs that look alike come from different tables or passages of the source.

Assays:
OCI-AML3 cells = assay: Proliferation assay, OCI-AML3 (CellTiter-Glo, 7 days); assay type: cell-based, human
Outline: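 Cells seeded at 125 (MOLM-13), 300 (MV4;11), 75 (OCI-AML3) or 200 (HEL) per well were exposed to 3.16-fold compound dilutions (0.1% DMSO) for 7 days at 37° C. Viability by CellTiter-Glo luminescence, normalized to DMSO (100%) and day-0 plate (0%); IC50 from one-site dose-response fit.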

muscarinic M2 receptor = muscarinic M2 receptor (Homo sapiens (Human), UniProt P08172); assay: Muscarinic M2 receptor binding assay (assay 1); details: [3H]AF-DX 384 2 nM, Cheng Prusoff
Outline: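 Membrane homogenates (60 μg protein) were incubated with 2 nM [3H]AF-DX 384 for 60 min at 22° C in Tris-HCl pH 7.4 with NaCl, KCl, MgCl2 and EDTA; 1 μM atropine defined nonspecific binding. Filtration and scintillation counting gave percent inhibition of specific binding, with Ki by Cheng-Prusoff.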

[1] = Caco-2 cell monolayers intrinsic permeation assay in the presence of efflux inhibitors; assay type: in vitro ADME; details: Caco-2, with efflux inhibitors
Outline: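 Caco-2 monolayers grown 14–18 days on Transwells; compound dosed apically in HBSS with efflux inhibitors (Zosuquidar, Benzbromarone, KO-143), inhibitors also basolateral, 37 °C with shaking. Sampled at 0, 45 and 120 min, analysed by LC/MS/MS; apical-to-basolateral Papp (cm/s) calculated.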

muscarinic M2 receptor, sequence (P08172 whole entry): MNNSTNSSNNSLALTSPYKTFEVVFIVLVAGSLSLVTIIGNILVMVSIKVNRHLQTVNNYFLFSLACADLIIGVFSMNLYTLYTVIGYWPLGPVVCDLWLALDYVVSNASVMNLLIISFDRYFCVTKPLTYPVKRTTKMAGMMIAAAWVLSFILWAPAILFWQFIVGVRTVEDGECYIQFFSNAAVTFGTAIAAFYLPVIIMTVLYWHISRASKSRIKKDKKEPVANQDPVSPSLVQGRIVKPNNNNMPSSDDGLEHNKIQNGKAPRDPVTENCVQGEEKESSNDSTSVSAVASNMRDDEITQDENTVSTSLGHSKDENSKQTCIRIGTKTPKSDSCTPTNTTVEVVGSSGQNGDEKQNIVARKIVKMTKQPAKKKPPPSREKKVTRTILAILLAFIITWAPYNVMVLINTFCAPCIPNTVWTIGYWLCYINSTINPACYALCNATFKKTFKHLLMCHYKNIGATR

Row | Structure (SMILES) | IC50 (OCI-AML3 cells; Homo sapiens, OCI-AML-3, 168 h) | Ki (muscarinic M2 receptor) | Papp A→B [1] | IC50 (OCI-AML3 cells)
1 | CC(C)N(C(=O)c1cc(F)ccc1-n1cc(C(=O)C2CCN(C(=O)[C@H]3N[C@@H]4CC[C@H]3C4)CC2)c2ccncc21)C(C)C [Example 16, 2-(3-(1-((1R,3S,4S)-2-Azabicyclo[2.2.1]heptane-3-carbonyl)piperidine-4-carbonyl)-1H-pyrrolo[2,3-c]pyridin-1-yl)-5-fluoro-N,N-diisopropylbenzamide] | 51 nM | 0.2 µM | 0.6 ×10⁻⁶ cm/s | –
2 | CC(C)N(C(=O)c1cc(F)ccc1-n1cc(C(=O)C2CCN(C(=O)[C@@H]3CCC(C)(C)N3)CC2)c2ccncc21)C(C)C [Example 27, (S)-2-(3-(1-(5,5-Dimethylpyrrolidine-2-carbonyl)piperidine-4-carbonyl)-1H-pyrrolo[2,3-c]pyridin-1-yl)-5-fluoro-N,N-diisopropylbenzamide] | 34 nM | 1.6 µM | 1.9 ×10⁻⁶ cm/s | –
3 | CC(C)N(C(=O)c1cc(F)ccc1-n1cc(C(=O)C2CCN(C(=O)[C@@H]3CCC4(CC4)N3)CC2)c2ccncc21)C(C)C [Example 24, (S)-2-(3-(1-(4-Azaspiro[2.4]heptane-5-carbonyl)piperidine-4-carbonyl)-1H-pyrrolo[2,3-c]pyridin-1-yl)-5-fluoro-N,N-diisopropylbenzamide] | 21 nM | 1.2 µM | 18.2 ×10⁻⁶ cm/s | –
4 | C[C@@H]1CCC[C@H](C)N1C(=O)c1cc(F)ccc1-n1cc(C(=O)C2CCN(C(=O)[C@H]3N[C@@H]4CC[C@H]3C4)CC2)c2ccncc21 [Example 33, (1-((1R,3S,4S)-2-Azabicyclo[2.2.1]heptane-3-carbonyl)piperidin-4-yl)(1-(2-((2R,6S)-2,6-dimethylpiperidine-1-carbonyl)-4-fluorophenyl)-1H-pyrrolo[2,3-c]pyridin-3-yl)methanone] | 207 nM | 0.3 µM | 0.5 ×10⁻⁶ cm/s | –
5 | CCN(C(=O)c1cc(F)ccc1-n1c(C)c(C(=O)C2CCN(C(=O)[C@@H]3CCC4(CC4)N3)CC2)c2ccncc21)C(C)C (single isomer, unassigned) [Example 49-2] | > 233 nM | 27.4 µM | 6.3 ×10⁻⁶ cm/s | –
6 | CC(C)N(C(=O)c1cc(F)ccc1-n1cc(C(=O)C2CN(C(=O)[C@H]3N[C@@H]4CC[C@H]3C4)C2)c2ccncc21)C(C)C [Example 5, 2-(3-(1-((1R,3S,4S)-2-Azabicyclo[2.2.1]heptane-3-carbonyl)azetidine-3-carbonyl)-1H-pyrrolo[2,3-c]pyridin-1-yl)-5-fluoro-N,N-diisopropylbenzamide] | 125 nM | 6.6 µM | 1.2 ×10⁻⁶ cm/s | –
7 | CC(C)c1cnccc1-c1cc(F)ccc1-n1cc(C(=O)C2CN(C(=O)[C@H]3N[C@@H]4CC[C@H]3C4)C2)c2ccncc21.O=CO [Example 11, (1-((1R,3S,4S)-2-Azabicyclo[2.2.1]heptane-3-carbonyl)azetidin-3-yl)(1-(4-fluoro-2-(3-isopropylpyridin-4-yl)phenyl)-1H-pyrrolo[2,3-c]pyridin-3-yl)methanone 1·formic acid] | 51 nM | 5 µM | 0.7 ×10⁻⁶ cm/s | –
8 | CC(C)N(C(=O)c1cc(F)ccc1-n1cc(C(=O)C2CN(C(=O)[C@H]3N[C@@H]4CC[C@H]3C4)C2)c2ccnc(F)c21)C(C)C [Example 15, 2-(3-(1-((1R,3S,4S)-2-Azabicyclo[2.2.1]heptane-3-carbonyl)azetidine-3-carbonyl)-7-fluoro-1H-pyrrolo[2,3-c]pyridin-1-yl)-5-fluoro-N,N-diisopropylbenzamide] | 103 nM | 13.6 µM | 4.2 ×10⁻⁶ cm/s | –
9 | Cc1c(C(=O)[C@@H]2CCN(C(=O)[C@H]3NC[C@@H]4C[C@@H]43)[C@@H](C)C2)c2ccncc2n1-c1ccc(F)cc1C(=O)N(CC(F)(F)F)C(C)C (single isomer, unassigned) [Example 53-3, 2-(3-((2R*,4S*)-1-((1S,2S,5R)-3-Azabicyclo[3.1.0]hexane-2-carbonyl)-2-methylpiperidine-4-carbonyl)-2-methyl-1H-pyrrolo[2,3-c]pyridin-1-yl)-5-fluoro-N-isopropyl-N-(2,2,2-trifluoroethyl)benzamide] | – | 19.8 µM | 3.6 ×10⁻⁶ cm/s | 14 nM
10 | Cc1c(C(=O)C2CCN(C(=O)[C@@H]3CCC4(CC4)N3)CC2)c2ccncc2n1-c1ccc(F)cc1C(=O)N1[C@H](C)COC[C@H]1C (single isomer, unassigned) [Example 58-2] | 35 nM | 4.2 µM | 5.4 ×10⁻⁶ cm/s | –
11 | CC(C)N(C(=O)c1cc(F)ccc1-n1cc(C(=O)C2CN(C(=O)[C@H]3N[C@H]4C[C@@H]3[C@@H](F)C4)C2)c2ccncc21)C(C)C [Example 7, 5-Fluoro-2-(3-(1-((1S,3S,4S,5S)-5-fluoro-2-azabicyclo[2.2.1]heptane-3-carbonyl)azetidine-3-carbonyl)-1H-pyrrolo[2,3-c]pyridin-1-yl)-N,N-diisopropylbenzamide] | 115 nM | 14.4 µM | 2.2 ×10⁻⁶ cm/s | –
12 | CC(C)N(C(=O)c1cc(F)ccc1-n1cc(C(=O)C2CCN(C(=O)[C@H]3N[C@@H]4CC[C@H]3C4)CC2)c2c(F)cncc21)C(C)C.O=CO [Example 44, 2-(3-(1-((1R,3S,4S)-2-Azabicyclo[2.2.1]heptane-3-carbonyl)piperidine-4-carbonyl)-4-fluoro-1H-pyrrolo[2,3-c]pyridin-1-yl)-5-fluoro-N,N-diisopropylbenzamide 1·formic acid] | 117 nM | 2.8 µM | 1 ×10⁻⁶ cm/s | –
13 | CC(C)(F)c1ncccc1-c1cc(F)ccc1-n1cc(C(=O)C2CN(C(=O)[C@H]3N[C@@H]4CC[C@H]3C4)C2)c2ccncc21 [Example 13, (1-((1R,3S,4S)-2-Azabicyclo[2.2.1]heptane-3-carbonyl)azetidin-3-yl)(1-(4-fluoro-2-(2-(2-fluoropropan-2-yl)pyridin-3-yl)phenyl)-1H-pyrrolo[2,3-c]pyridin-3-yl)methanone] | 37 nM | 9.7 µM | 1.7 ×10⁻⁶ cm/s | –
14 | CC(C)c1ncccc1-c1cc(F)ccc1-n1cc(C(=O)C2CN(C(=O)[C@H]3N[C@@H]4CC[C@H]3C4)C2)c2ccncc21 [Example 10, (1-((1R,3S,4S)-2-Azabicyclo[2.2.1]heptane-3-carbonyl)azetidin-3-yl)(1-(4-fluoro-2-(2-isopropylpyridin-3-yl)phenyl)-1H-pyrrolo[2,3-c]pyridin-3-yl)methanone] | 24 nM | 10.5 µM | 2.6 ×10⁻⁶ cm/s | –
15 | CCN(C(=O)c1cc(F)ccc1-n1c(C)c(C(=O)C2CCN(C(=O)[C@H]3NC[C@@H]4C[C@@H]43)CC2)c2ccncc21)C(C)C [Example 47, 2-(3-(1-((1S,2S,5R)-3-Azabicyclo[3.1.0]hexane-2-carbonyl)piperidine-4-carbonyl)-2-methyl-1H-pyrrolo[2,3-c]pyridin-1-yl)-N-ethyl-5-fluoro-N-isopropylbenzamide] | 26 nM | 7.3 µM | 1.9 ×10⁻⁶ cm/s | –
16 | CCN(C(=O)c1cc(F)ccc1-n1c(C)c(C(=O)C2CCN(C(=O)[C@H]3NC[C@@H]4C[C@@H]43)CC2)c2ccncc21)C(C)C (single isomer, unassigned) [Example 48-2] | – | 19 µM | – | 23 nM
17 | CCN(C(=O)c1cc(F)ccc1-n1cc(C(=O)C2CN(C(=O)[C@H]3N[C@@H]4CC[C@H]3C4)C2)c2ccncc21)C(C)C [Example 8, 2-(3-(1-((1R,3S,4S)-2-Azabicyclo[2.2.1]heptane-3-carbonyl)azetidine-3-carbonyl)-1H-pyrrolo[2,3-c]pyridin-1-yl)-N-ethyl-5-fluoro-N-isopropylbenzamide] | 193 nM | 8 µM | 0.2 ×10⁻⁶ cm/s | –
18 | CC(C)N(C(=O)c1cc(F)ccc1-n1cc(C(=O)C2CCN(C(=O)[C@H]3NC[C@@H]4CC[C@@H]43)CC2)c2ccncc21)C(C)C (relative stereo) [Example 25, rel-2-(3-(1-((1R,2R,5S)-3-Azabicyclo[3.2.0]heptane-2-carbonyl)piperidine-4-carbonyl)-1H-pyrrolo[2,3-c]pyridin-1-yl)-5-fluoro-N,N-diisopropylbenzamide] | 37 nM | 1.9 µM | 3 ×10⁻⁶ cm/s | –
19 | Cc1c(C(=O)C2CCN(C(=O)[C@@H]3CCC(C)(C)N3)CC2)c2ccncc2n1-c1ccc(F)cc1C(=O)N(C(C)C)C(C)C (single isomer, unassigned) [Compound 56-2] | 47 nM | > 100 µM | – | –
20 | CCN(C(=O)c1cc(F)ccc1-n1c(C)c(C(=O)C2CCN(C(=O)[C@@H]3CCC(C)(C)N3)CC2)c2ccncc21)C(C)C (single isomer, unassigned) [Example 50-2] | 63 nM | 34.3 µM | 1.2 ×10⁻⁶ cm/s | –
21 | CC(C)N(C(=O)c1cc(F)ccc1-n1cc(C(=O)C2CCN(C(=O)[C@@H]3CC4(CC4)CN3)CC2)c2ccncc21)C(C)C [Example 26, (S)-2-(3-(1-(5-Azaspiro[2.4]heptane-6-carbonyl)piperidine-4-carbonyl)-1H-pyrrolo[2,3-c]pyridin-1-yl)-5-fluoro-N,N-diisopropylbenzamide] | 140 nM | 2.6 µM | 0.8 ×10⁻⁶ cm/s | –
22 | Cc1c(C(=O)C2CCN(C(=O)[C@H]3NC[C@@H]4C[C@@H]43)CC2)c2ccncc2n1-c1ccc(F)cc1C(=O)N(C(C)C)C(C)C (single isomer, unassigned) [Example 55-2] | 29 nM | 51.9 µM | – | –
